This note sets out measurements from patent publication US9605002B2, “5,5-heteroaromatic anti-infective compounds” (priority 2012, dated 2017).

For data set [1], the system named is M. tuberculosis (Mtb) H37Rv. In words: Microplate Alamar Blue Assay (MABA), GAS media, replicating Mtb. The data set is classed as cell-based, Mycobacterium tuberculosis. To be noted: for MIC90: Mycobacterium tuberculosis, GAS (glycerol-alanine-salt) media, replicating H37Rv, read-out: GAS media: replicating H37Rv Mtb: MIC 90. A general note: Resazurin is reduced to fluorescent resorufin, in cell work by metabolically active cells.

For data set [2], the system named is M. tuberculosis (Mtb) H37Rv. As to the kind of experiment: Microplate Alamar Blue Assay (MABA), 7H12 media, replicating Mtb. It counts as cell-based. To be noted: Mycobacterium tuberculosis, 7H12 media (no glycerol), read-out: 7H12 media: Replicating H37Rv Mtb: MIC 90.
Data set [3] concerns Drug sensitive Mtb clinical strain #1. In words: MIC against clinical Mtb strains. The data set is classed as cell-based. To be noted: Mycobacterium tuberculosis, 7H9/glucose/glycerol/BSA/0.05% Tween 80, average of three.
For data set [4], the system named is Drug sensitive Mtb clinical strain #2. In words: MIC against clinical Mtb strains. To be noted: Mycobacterium tuberculosis, 7H9/glucose/glycerol/BSA/0.05% Tween 80, average of three. It counts as cell-based.
Data set [5] concerns VERO kidney epithelial cells. As to the kind of experiment: VERO toxicity assessment. To be noted: for pIC50: Chlorocebus sabaeus, Vero, read-out: VERO: IC50.

Molecules are shown by their SMILES. pIC50: −log10 of the molar value. Converted amounts (≈) assume the structure as drawn. “And” between values parts separate entries of the source, which are not always exact repeats. Equal entries are not always repeated.

As a reminder, the pIC50 is the negative decadic logarithm of the IC50, by convention in mol/L. For `Cc1cn2c(C(=O)NCc3ccc(Oc4ccc(F)cc4)cc3)c(C)nc2s1` [ND-010081], the MIC90 in data set [1] was less than 2 µM; in data set [2], less than 2 µM; in data set [3] it was < 0.01 µM and < 0.025 µg/mL; in data set [4], < 0.025 µg/mL and < 0.01 µM. Also, the “in vitro activity against H37Rv TB” value in data set [1] (statement in words, medium not stated) is on record as “comparable to the current clinical candidates”. Further, the pIC50 in data set [5] was 5.00 to 5.70. Besides, the therapeutic window result in data set [5] (statement in words) was “sufficient therapeutic window for in vivo treatment”.

Turning to `O=[N+]([O-])c1cn2c(n1)OC[C@@H](OCc1ccc(OC(F)(F)F)cc1)C2` [PA-824, reference compound], the MIC90 in data set [3] is 0.45 µM to 0.86 µM and 0.16 µg/mL to 0.31 µg/mL; in data set [4] it was > 13.9 µM and > 5 µg/mL.

In the case of `CCc1nc2sc(Cl)cn2c1C(=O)NCc1ccc(Oc2ccc(Cl)cc2)cc1` [ND-020053], the MIC90 in data set [1] and in data set [2] was less than 2 µM throughout. In data set [5], the negative-log IC50 (pIC50) was 4.49 to 4.70.

Consider `Cc1cn2c(C(=O)Nc3ccc(-c4ccc(C(F)(F)F)cc4)cc3)c(C)nc2s1` [ND-020042], for which the MIC90 in data set [1] is less than 2 µM; in data set [2] it was 2 to 10 µM (≈ 0.831 to 4.15 µg/mL). Also, the pIC50 in data set [5] was more than 4.49.
